Measured values reported in US20240238310A1, “MODULATION OF SEX STEROID HORMONE PRODUCTION AND ACTIVITY FOR TREATING AND PREVENTING HERNIAS” (Northwestern University, priority 2020, published 2024).

Experiments:
[1] = system: Arom^hum mice; experiment: Prevention of inguinal hernia, LAMT fibrosis and atrophy in Arom^hum mice (treatment started before hernia formation); type: in vivo, mouse; conditions: Arom^hum mice
Excerpt: Increased LAMT estrogen levels are associated with LAMT fibrosis, myocyte atrophy, and inguinal hernia development; aromatase inhibitor prevents hernia formation in Arom^hum mice. […] None of the WT littermates (n=32) developed hernia.
In the mouse, the scrotum is connected to the peritoneal cavity with a narrow funicular (or inguinal) canal, whose walls are composed of LAMT. Structurally normal LAMT is essential to maintain the tone of this canal and prevents herniation of bowel. LAMT is the critical site affected by E2 excess (FIGS. 2, 5, 6). As in many other tissues, stromal cells intimately interact with parenchymal cells (myocytes) in UAMT and LAMT (FIG. 6). […] Administration of the aromatase inhibitor letrozole started at 3 weeks of age for 12 weeks prevented LAMT atrophy, fibrosis and herniation in all (10 out of 10) treated Arom^hum mice (FIG. 6B).
Experiment 1a1: Does aromatase inhibition arrest or reverse LAMT fibrosis, atrophy, and hernia in male Arom^hum mice? […] The hernias will be classified as mild, early moderate, late moderate and severe if the bulging area through muscle tissue is <100 mm^2 (˜4 weeks), 100-150 mm^2 (˜6 weeks), 150-200 mm^2 (˜8 weeks), or >200 mm^2 (˜10 weeks), respectively. First, we will treat Arom^hum mice showing mild hernias with letrozole (SC 10 μg/day release pellet) or vehicle starting at 4 weeks of age for 12 weeks^63. We will assess whether muscle fibrosis, atrophy, and hernia can be arrested or reversed in mildly (<100 mm^2) affected animals. If early letrozole treatment can arrest mild muscle fibrosis, we will delay the initiation of treatment to 6, 8, or 10 weeks of age to determine whether letrozole can arrest or reverse the growth of the early moderate (6 weeks), late moderate (8 weeks) or severe hernia (10 weeks). Hernia development will be monitored by visual inspection twice a week for 12 weeks after letrozole administration and will be reported as hernia incidence using Kaplan-Meier curve analysis. The length and width of the observed hernias will be measured to calculate the surface area (length×width). After completion of the treatment, the mice will be dissected, and LAMT, UAMT (control), and serum will be collected. One hundred mg of frozen muscle tissue will be obtained to measure tissue estrogen levels. Circulating and tissue (LAMT and UAMT) E2 levels will be measured at the IIT Research Institute by Dr. Miguel Muzzio (see letter) using LC-MS^2. We will use immunoblotting and IHC to determine ERα expression in LAMT and UAMT.
This finding was published in PNAS in Oct., 2018. […] We treated Arom^hum mice with fulvestrant for 12 weeks starting at the age of 4 weeks (before hernia formation). As expected, placebo-treated Arom^hum mice developed scrotal hernias.

[2] = system: LAMT primary fibroblasts from Arom^hum mice; experiment: mRNA levels of estrogen-responsive and fibrotic genes in LAMT primary fibroblasts after E2 antagonist treatment; type: cell-based, mouse; conditions: 100 nM ICI 182,780, pretreated 2 hours before addition of E2 (10 nM)
Procedure: FIG. 10. mRNA levels of estrogen-responsive genes [Pgr (A, E) and Greb1 (B, F)] and fibrotic genes [Spon2 (C, G), Kiss1 (D), and Eln (H)] in LAMT primary fibroblasts from Arom^hum mice after treatment with 100 nM ICI 182,780 (ICI) or […] MPP in the presence or absence of E2 (10 nM). Cells were pretreated with ICI 182,780 or MPP for 2 hours before the addition of E2. Veh, vehicle. *P<0.05, **P<0.01. GAPDH mRNA levels served as controls.
Experiment 1a2: Does the general E2 antagonist fulvestrant, which downregulates and blocks ER, or ERα-selective E2 antagonist MPP prevent, arrest or reverse LAMT muscle fibrosis, atrophy and inguinal hernias in male Arom^hum mice? […] Here, we will define whether the effects of E2 on hernia formation in LAMT is mediated via ERα in vivo. We will treat Arom^hum or WT mice with vehicle, fulvestrant (ICI 182,780), or MPP. […] Circulating and muscle tissue E2 levels will be measured using LC-MS^2. To validate the effects of each treatment, protein expression of ERα and E2/ERα target genes (Ccnd1, Pgr, and Greb1), and cell proliferation markers (Ki67 and PCNA) will be determined by IHC and immunoblotting. Fibrotic-related genes (Kiss1, Ren1, Emb, Timp1, Spon2, and Eln), the ECM marker Col1a1, and the myocyte marker Myh will be assessed using qPCR and IHC in LAMT after fulvestrant, MPP, and/or letrozole treatment. […]

## C[C@]12CC[C@@H]3c4ccc(O)cc4C[C@@H](CCCCCCCCC[S+]([O-])CCCC(F)(F)C(F)(F)F)[C@H]3[C@@H]1CC[C@@H]2O (stereo partly shown) [fulvestrant]
[1]; 4-week-old mice treated for 12 weeks, FIGS. 15C and D
  development of LAMT fibrosis (fibrotic area, Masson's trichrome): rescues lower abdominal muscle tissue (LAMT) fibrosis and myocyte atrophy
[1]; 4-week-old mice treated for 12 weeks, FIGS. 15C and E
  myofiber atrophy (myofiber cross-sectional area): completely prevented myofiber atrophy
[1]; fulvestrant for 12 weeks starting at the age of 4 weeks (before hernia formation)
  hernia formation: completely prevented by fulvestrant administration
[2]
  E2-induced expression of estrogen-responsive genes (Pgr and Greb1) and fibrotic genes (Spon2, Kiss1, Eln): significantly decreased E2-induced expression of estrogen-responsive genes (Pgr and Greb1) and fibrotic genes (Spon2, Kiss1 and, Eln)
